Assay results: patent US9023998B2, “Near infrared fluorogen and fluorescent activating proteins for in vivo imaging and live-cell biosensing” (Carnegie Mellon University, priority 2013, dated 2015)

Legend:
[1] = system: HEK293 cells expressing dL9.5; test: Confocal imaging of HEK293 cells expressing dL9.5 in various cellular contexts; assay type: cell-based; settings: HEK293; SKC728 100 nM, SKC602 50 nM
Description: The expressed construct was imaged using an Andor Revolution XD spinning disk confocal (GFP 488:525/50, dL9.5 (SEQ. ID. NO. 3) 640:685/70 AND 640:794/160, 60×1.49 NA oil immersion objective) and the results are shown in FIG. 5. […] The fluorogen was not washed away prior to imaging.
Imaging conditions were similar to those described for obtaining FIG. 5.
CYTOPLASM. HEK293 cells were transfected with, and stably expressing the pCYdL9.5eGFP vector, were thawed from a cryostock and maintained in DMEM/10% FBS for four passages prior to fluorescence imaging procedures. Immediately prior to imaging, growth media was exchanged for HBSS (pH 7.4) supplemented with SKC602 (200 nM final concentration). The cells were allowed to recover at 37° C. with 5% CO2 for 20-30 minutes, and fluoromodule activity under in vivo conditions within the cytoplasm was imaged using an Andor Revolution XD spinning disk confocal microscope (60×1.49 NA oil immersion objective, excitation at 640 nm, emission in far-red: 685/70 filter, and NIR: 794/160 filter). The same cells were also imaged for eGFP activity (excitation at 488 nm, emission via 525/50 nm filter). […] In accordance with the fluoromodule emission spectrum shown in FIG. 2, this emission filter allows the microscope camera to detect a large portion of the fluoromodule emission, and consequently, the observed signal appears brighter. One must note that intensities cannot be directly compared between channels, due to considerations non-exclusively including: differences in excitation light intensities, exposure and capture times, the transmission profile of each emission filter, and the quantum efficiency of the iXON3 DU897 (back-illuminated) camera across the range of emitted wavelengths. An evenly distributed fluorescence signal is observed in these cells, with no bright foci that would indicate protein aggregation, and the fluoromodule signal intensity scales with that of eGFP.
PLASMA MEMBRANE. […]

mL9.3 (SEQ. ID. NO. 20) = test: Fluorogen activation by purified monomeric FAP mL9.3 (spectra); assay type: biochemical; settings: purified protein, about 300 nM fluorogen, PBS pH 7.4
Description: While the peptide linker that joins the VL units in dL9.2 (SEQ. ID. NO. 2) and dL9.5 (SEQ. ID. NO. 3) enhance fluorogen binding affinity and binding rate by reducing the entropic cost of assembly around the fluorogen, the linker is not strictly necessary for fluorogenic activation. […] In panels C and D, corresponding spectra from mL9.5:SKC602 (SEQ. ID. NO. 21:SKC602) and mL9.5:SKC728 (SEQ. ID. NO. 21:SKC728) fluoromodules are shown. Spectra were obtained using a Quantamaster™ fluorometer (PTI) equipped with dual monochromators on both excitation and emission light paths.
To facilitate ligase-dependent cloning methods, the above procedure was repeated for dL9.5 (SEQ. ID. NO. 6), using otherwise identical primers that appended BspEI (TCCGGA) (SEQ. ID. NO. 25) and BamHI (GGATCC) (SEQ. ID. NO. 26) sites directly at the 5′ and 3′ termini, respectively, of the dL9.5 gene (SEQ. ID. NO. 6). The resulting plasmid, designated pPNL9z-dL9.5, could be digested with BspEI (SEQ. ID. NO. 25) and BamHI (SEQ. ID. NO. 26) to produce a yeast expression vector backbone capable of receiving inserts with like-digested termini. […]

Structure (SMILES)	Membrane permeance shown by subcellular labeling (plasma membrane exterior / mitochondrial matrix) [1]	Induction of NIR fluorescence by mL9.3 (mL9.3 (SEQ. ID. NO. 20))
CN(C)c1ccc(/C=C/C(=C2C=CC(=[N+](C)C)C=C2)c2ccc(N(C)C)cc2)cc1 [SKC602, (E)-N-(4-(1,3-bis(4-(dimethylamino)phenyl)allylidene)cyclohexa-2,5-dien-1-ylidene)-N-methylmethanaminium]	membrane permeant	induces fluorescence
CN(C)c1ccc(C(/C=C/c2ccc(N(C)CCCCC(=O)NC(CCS(=O)(=O)O)C(=O)O)cc2)=C2C=CC(=[N+](C)C)C=C2)cc1 (stereo not shown) [SKC728]	membrane impermeant	induces fluorescence
